Measured values reported in US5045566A, “Novel imidate insecticides” (ICI Americas Inc., priority 1989, dated 1991).

Columns and labels:
Type in all cases: in vivo
[1] = system: Housefly [Musca domestica]; test: Housefly contact mortality in dishes (HF), 48 hours; settings: μg of test compound per 25 female flies
How it was run: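 Dose range started at 100 μg per 25 female flies and went downward. Insects (1-2 days old) contacted a dried acetone/peanut-oil deposit in dishes; LC50 values come from dosage-mortality curves at 48 h.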

[2] = system: Black Bean Aphid [Aphis fabae (Scop.)]; test: Black bean aphid spray test on nasturtium (BBA), 48 hours; settings: percent of test compound in sprayed solution
How it was run: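 LC50, given as percent test compound in the sprayed liquid, was calculated from dosage-mortality curves using concentrations from 0.05% downward. Sprays in 50:50 acetone-water went to runoff on ~5 cm nasturtiums carrying 25-50 aphids of mixed ages, one day after infestation. Deaths were counted 48 h later under greenhouse conditions.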

[3] = system: Tobacco Budworm [Heliothis virescens (Fabricius)] eggs; test: Tobacco budworm eggs (TBW-E); settings: percent in solution; 2-day old eggs
How it was run: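 Step 1: dip 2-day old egg patches in acetone test solutions (top concentration 0.1%). Step 2: hold in dishes with rearing medium at 78° F. Step 3: record mortality after control hatch and feeding.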

[4] = system: Beet Armyworm (Spodoptera exigua); test: Beet armyworm leaf dip (BAW), 5 days; settings: percent in solution; second-instar larvae; five days
Procedure: (§1) The compounds in Tables 1 and 2 above were tested for insecticidal activity using the following testing procedures. LC50 values, based on the results of these tests and calculated according to dosage-mortality curves, are expressed in Table 3.
Beet Armyworm (Spodoptera exigua):
Test compounds were diluted in a 50-50 acetone-water solution. Young leaves of sugar beets (Beta vulgaris) were immersed in the test solutions for 2-3 seconds and placed on a wire screen to dry. The dried leaves were placed in petri dishes containing a moistened filter paper and infested with five second-instar beet armyworm larvae. The dishes were placed in a high humidity chamber. Mortality of the larvae was recorded five days later. Test concentrations ranged from 0.1% downward. The LC-50 values are expressed below in Table 3 under the heading "BAW" in terms of percent of the test compound in solution.

[5] = system: Cabbage Looper [Trichoplusia ni (Hubner)]; test: Cabbage looper leaf dip (CL), 3-5 days; settings: percent in solution, second-instar larvae
How it was run: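 Squash cotyledons dipped in test solution (acetone-water 50-50, ≤0.1%), dried, offered to 5 second-instar larvae; mortality after 3-5 days gives LC50.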

[6] = system: Aster Leafhopper [Macrosteles fascifrens (Stal)]; test: Aster leafhopper on dipped oat seedlings (LH), 48 hours; settings: percent in solution, adults/nymphs
How it was run: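 Three ~10 cm oat seedlings per cup were dipped 2-3 seconds in 50-50 acetone-water compound solutions, dried, and caged with ten adult/nymph leafhoppers. Mortality was counted after 48 hours at concentrations from 0.05% downward. LC50, as percent compound in solution, came from dosage-mortality curves.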

[7] = system: Tobacco Budworm [Heliothis virescens (Fabricius)] larvae; test: Tobacco budworm larvae, contact (TBW-C), 5 days; settings: percent in solution, second-instar larvae
Procedure: as §1
Tobacco Budworm [Heliothis virescens (Fabricius)]:
(a) Contact: Test compounds were diluted in a 50-50 acetone-water solution. Cotton (Gossypium sp.) cotyledons were immersed in the test solutions for 2-3 seconds and placed on a wire screen to dry. The dried leaves were placed in petri dishes containing a moistened piece of filter paper and infested with 5 second-instar tobacco budworm larvae. The dishes were placed in a high humidity chamber for 5 days, and percent mortality of the larvae recorded. Test concentrations ranged from 0.1% downward. The LC-50 values are expressed below in Table 3 under the heading "TBW-C" in terms of percent of the test compound in the solution.

[8] = system: Maize weevil [Sitophilus zeamais (Motschulsky)]; test: Maize weevil on dipped corn seeds (MW), 48 hours; settings: percent in solution, adult weevils
How it was run: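 LC50, given as percent of compound in dipping solution, comes from dosage-mortality curves over concentrations descending from 0.01%. Four corn seeds soaked 2-3 s in 50:50 acetone:water solution were dried and held with 10 adult weevils, about 25° C, mortality read after 48 h.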

CC(C)C(=Nc1ccc(F)cc1)OCc1cccc(Oc2ccccc2)c1 [Compound 46]
LC50 HF [1]: 7 µg
LC50 BBA [2]: 0.003%
LC50 TBW E (eggs) [3]: 0.016%
LC50 BAW [4]: 0.006%
LC50 CL [5]: 0.003%
LC50 LH [6]: 0.002%

O=[N+]([O-])c1ccc(N=C(OCc2cccc(Oc3ccccc3)c2)C(Cl)Cl)cc1 [Compound 173]
LC50 HF [1]: 18 µg
LC50 BBA [2]: > 0.05%
LC50 TBW C (contact) [7]: > 0.1%
LC50 TBW E (eggs) [3]: > 0.1%
LC50 BAW [4]: > 0.1%
LC50 CL [5]: 0.02%

CC(C)C(=Nc1cccc(Cl)c1)OCc1cccc(Oc2ccccc2)c1 [Compound 7]
LC50 HF [1]: 8 µg
LC50 BBA [2]: 0.0003%
LC50 TBW E (eggs) [3]: 0.009%
LC50 BAW [4]: 0.006%
LC50 CL [5]: 0.006%
LC50 LH [6]: 0.0002%

CC(C)C(=Nc1ccc(Br)cc1)OCc1cccc(Oc2ccc(F)cc2)c1 [Compound 226]
LC50 HF [1]: 16 µg
LC50 BBA [2]: 0.01%
LC50 TBW C (contact) [7]: 0.001%
LC50 TBW E (eggs) [3]: 0.1%
LC50 CL [5]: 0.0005%
LC50 LH [6]: 0.002%
LC50 MW [8]: 0.009%

CC(C)C(=Nc1ccc(Cl)c(Cl)c1)OCc1cccc(Oc2ccccc2)c1 [Compound 14]
LC50 HF [1]: 40 µg
LC50 BBA [2]: 0.0003%
LC50 BAW [4]: 0.005%
LC50 CL [5]: 0.004%
LC50 LH [6]: 0.001%
LC50 MW [8]: 0.01%

CC(C)C(=Nc1ccc(C(F)(F)F)cc1)OCc1cccc(Oc2ccc(Cl)cc2)n1 [Compound 530]
LC50 HF [1]: 9.8 µg
LC50 BBA [2]: 0.0003%
LC50 TBW C (contact) [7]: 0.00005%
LC50 TBW E (eggs) [3]: 0.005%
LC50 CL [5]: 0.00027%
LC50 LH [6]: 0.05%
LC50 MW [8]: > 0.01%

O=[N+]([O-])c1cccc(N=C(OCc2cccc(Oc3ccccc3)c2)C(Cl)Cl)c1 [Compound 174]
LC50 HF [1]: 17 µg
LC50 BBA [2]: 0.05%
LC50 TBW E (eggs) [3]: > 0.1%
LC50 BAW [4]: 0.1%
LC50 CL [5]: 0.03%

CC(C)C(=Nc1cccc(C(F)(F)F)c1)OCc1cccc(Oc2ccccc2)c1 [Compound 67]
LC50 HF [1]: 15 µg
LC50 BBA [2]: 0.0002%
LC50 TBW E (eggs) [3]: 0.01%
LC50 BAW [4]: 0.006%
LC50 CL [5]: 0.001%
LC50 LH [6]: 0.00027%

CCC(C)C(=Nc1ccc(F)c(Cl)c1)OCc1cccc(Oc2ccccc2)c1 (centres unmarked) [Compound 122]
LC50 HF [1]: 37 µg
LC50 BBA [2]: > 0.05%
LC50 TBW E (eggs) [3]: 0.05%
LC50 BAW [4]: 0.01%
LC50 CL [5]: 0.0007%
LC50 LH [6]: > 0.05%
LC50 MW [8]: > 0.01%

FC(F)(F)c1ccc(N=C(OCc2cccc(Oc3ccccc3)c2)C2CC2)c(Cl)c1 [Compound 65]
LC50 HF [1]: > 100 µg
LC50 BBA [2]: > 0.05%
LC50 BAW [4]: > 0.1%
LC50 CL [5]: < 0.01%
LC50 LH [6]: > 0.05%

CC(C)C(=Nc1ccc(Cl)c(Cl)c1)OCc1cccc(Oc2ccc(Cl)cc2)n1 [Compound 523]
LC50 HF [1]: 22 µg
LC50 BBA [2]: 0.001%
LC50 TBW C (contact) [7]: 0.0002%
LC50 TBW E (eggs) [3]: > 0.1%
LC50 CL [5]: 0.00015%
LC50 LH [6]: > 0.05%
LC50 MW [8]: > 0.01%

CC(C)C(=Nc1ccc(F)c(Cl)c1)OCc1cccc(Oc2ccc(Br)cc2)c1 [Compound 238]
LC50 HF [1]: 25 µg
LC50 BBA [2]: 0.003%
LC50 TBW C (contact) [7]: 0.0004%
LC50 TBW E (eggs) [3]: 0.05%
LC50 CL [5]: 0.0002%
LC50 LH [6]: > 0.05%
LC50 MW [8]: > 0.01%

CC(C)C(=Nc1cccc(C(F)(F)F)c1)OCc1cccc(Oc2ccc(F)cc2)c1 [Compound 202]
LC50 HF [1]: 18 µg
LC50 BBA [2]: 0.003%
LC50 TBW C (contact) [7]: 0.0007%
LC50 TBW E (eggs) [3]: > 0.1%
LC50 CL [5]: 0.00024%
LC50 LH [6]: 0.0003%
LC50 MW [8]: > 0.01%

FC(F)(F)c1ccc(N=C(OCc2cccc(Oc3ccccc3)c2)C2CC2)cc1 [Compound 62]
LC50 HF [1]: 20 µg
LC50 BBA [2]: 0.001%
LC50 BAW [4]: 0.02%
LC50 CL [5]: 0.005%
LC50 LH [6]: > 0.05%
LC50 MW [8]: > 0.01%

FC(F)(F)Oc1ccc(N=C(OCc2cccc(Oc3ccccc3)c2)C2CC2)cc1 [Compound 63]
LC50 HF [1]: 30 µg
LC50 BBA [2]: 0.0003%
LC50 BAW [4]: 0.005%
LC50 CL [5]: 0.005%
LC50 LH [6]: 0.0001%
LC50 MW [8]: > 0.01%

Fc1ccc(N=C(OCc2cccc(Oc3ccccc3)c2)C2CC2)cc1 [Compound 45]
LC50 HF [1]: 30 µg
LC50 BBA [2]: 0.03%
LC50 BAW [4]: 0.1%
LC50 CL [5]: 0.03%
LC50 LH [6]: > 0.05%

CC(C)C(=Nc1ccc(F)c(I)c1)OCc1ccc(F)c(Oc2ccc(Cl)cc2)c1 [Compound 326]
LC50 HF [1]: 25 µg
LC50 BBA [2]: > 0.05%
LC50 TBW C (contact) [7]: 0.0005%
LC50 TBW E (eggs) [3]: 0.03%
LC50 BAW [4]: 0.004%
LC50 CL [5]: 0.00015%

CC(C)C(=Nc1ccc(F)c(C(F)(F)F)c1)OCc1cccc(Oc2ccc(F)cc2)c1 [Compound 120]
LC50 HF [1]: 14 µg
LC50 BBA [2]: 0.0006%
LC50 TBW C (contact) [7]: 0.0025%
LC50 TBW E (eggs) [3]: 0.04%
LC50 CL [5]: 0.00015%
LC50 LH [6]: 0.0003%
LC50 MW [8]: > 0.01%

CC(C)C(=Nc1ccc(F)c(Cl)c1)OCc1cccc(Oc2ccc(F)c(F)c2)n1 [Compound 531]
LC50 HF [1]: 5 µg
LC50 BBA [2]: > 0.05%
LC50 TBW C (contact) [7]: 0.00037%
LC50 TBW E (eggs) [3]: > 0.1%
LC50 CL [5]: > 0.1%
LC50 LH [6]: > 0.05%
LC50 MW [8]: > 0.01%

CC(C)C(=Nc1ccc(F)cc1F)OCc1cccc(Oc2ccc(F)cc2)c1 [Compound 209]
LC50 HF [1]: 17 µg
LC50 BBA [2]: 0.01%
LC50 TBW C (contact) [7]: 0.005%
LC50 TBW E (eggs) [3]: 0.1%
LC50 CL [5]: 0.0007%
LC50 LH [6]: 0.001%
LC50 MW [8]: > 0.01%

CC(C)C(=Nc1ccc(Cl)cc1)OCc1ccc(F)c(Oc2ccccc2)c1 [Compound 23]
LC50 HF [1]: 5 µg
LC50 BBA [2]: 0.001%
LC50 TBW E (eggs) [3]: 0.017%
LC50 BAW [4]: 0.001%
LC50 CL [5]: 0.0005%

CC(C)C(=Nc1ccc(I)cc1)OCc1cccc(Oc2ccc(F)cc2)c1 [Compound 234]
LC50 HF [1]: 38 µg
LC50 BBA [2]: 0.003%
LC50 TBW C (contact) [7]: 0.0013%
LC50 TBW E (eggs) [3]: 0.09%
LC50 CL [5]: 0.00045%
LC50 LH [6]: 0.003%
LC50 MW [8]: > 0.01%

CC(C)(C)C(=Nc1ccc(Cl)cc1)OCc1cccc(Oc2ccccc2)c1 [Compound 30]
LC50 HF [1]: > 100 µg
LC50 BBA [2]: > 0.05%
LC50 TBW C (contact) [7]: 0.01%
LC50 TBW E (eggs) [3]: > 0.1%
LC50 CL [5]: 0.003%
LC50 LH [6]: > 0.05%
LC50 MW [8]: > 0.01%

CC(C)C(=Nc1ccc(F)c(Cl)c1)OCc1cccc(Oc2ccc(Cl)cc2)n1 [Compound 463]
LC50 HF [1]: 8 µg
LC50 BBA [2]: 0.05%
LC50 TBW E (eggs) [3]: 0.0075%
LC50 BAW [4]: 0.0024%
LC50 CL [5]: 0.00009%
LC50 LH [6]: 0.0003%
LC50 MW [8]: 0.01%

Clc1ccc(N=C(OCc2cccc(Oc3ccccc3)c2)C2CC2)cc1 [Compound 32]
LC50 HF [1]: 37 µg
LC50 BBA [2]: 0.003%
LC50 BAW [4]: 0.03%
LC50 CL [5]: 0.003%
LC50 LH [6]: > 0.05%
LC50 MW [8]: > 0.01%
